Patent US9387204B2, “Fused bicyclic imidazoles” (BAYER INTELLECTUAL PROPERTY GmbH, priority 2007, dated 2016)
Where two headings read alike, the source gives them in different places.

System: A549 cells
Test: Cellular proliferation/cytotoxicity assay (Alamar Blue), A549 cells
Settings: read-out: Anti-proliferative/Cytotoxic activity (A549 cells)
[1] = A549 cells, 72 h, Alamar Blue (Resazurin)

Method: The anti-proliferative activity of the compounds as described herein, is evaluated using the OvCAR3, HCT116 and A549 cell lines and the Alamar Blue (Resazurin) cell viability assay (O'Brien et al. Eur J Biochem 267, 5421-5426, 2000). Resazurin is reduced to the fluorescent resorufin by cellular dehydrogenase activity, correlating with viable, proliferating cells. Test compounds are dissolved as 10 mM solutions in DMSO and subsequently diluted. Cells like HCT116 or A549 cells were seeded into 96 well flat bottom plates at a density of 10000 cells/well (OvCAR3 cells), 1000 cells/well (HCT116 cells) or 2000 cells/well (A549 cells) in a volume of 200 μl/well. 24 hours after seeding, 1 μl each of the compound dilutions are added into each well of the 96 well plates. Each compound dilution is tested as at least as duplicates. Wells containing untreated control cells were filled with 200 μl DMEM (Dulbecco's Modified Eagle Medium) containing 0.5 vol % v:v DMSO. The cells are then incubated with the substances for 72 h at 37° C. in a humidified atmosphere containing 5 vol % CO2. To determine the viability of the cells, 20 μl of a Resazurin solution (90 mg/l) are added. After 4 h incubation at 37° C., the fluorescence is measured by extinction at ? =544 nm and an emission of ? =590 nm (Wallac Victor2; Perkin Elmer, USA). For the calculation of the cell viability, the emission value from untreated cells is set as 100% viability and the fluorescence intensity of treated cells are set in relation to the values of untreated cells. Viabilities are expressed as % values. The corresponding IC50 values of the compounds for cytotoxic activity are determined from the concentration-effect curves by means of non-linear regression. The analysis of the data is performed using a biostatistical program (Graph Pad Prism, USA).

| Structure (SMILES) | IC50 (Homo sapiens, A549, 72 h) | IC50 [1] |
| --- | --- | --- |
| c1ccc(-c2nc(C3CCN(Cc4ccc(-c5nc6ncccn6c5-c5nccs5)cc4)CC3)n[nH]2)nc1 [Example 39, 2-(4-{[4-(5-pyridin-2-yl-1,2,4-triazol-3-yl)piperidin-1-yl]methyl}phenyl)-3-(1,3-thiazol-2-yl)imidazo[1,2-a]pyrimidine] | > 10 µM |  |
| c1ccc(-c2c(-c3ccc(CN4CCC(c5nnc(-c6ccco6)[nH]5)CC4)cc3)nc3scnn23)cc1 [Example 94, ′6-[4-({4-[5-(2-furyl)-4H-1,2,4-triazol-3-yl]piperidin-1-yl}methyl)phenyl]-5-phenylimidazo[2,1-b][1,3,4]thiadiazole] |  | < 10 µM |
| c1ccc(-c2c(-c3ccc(CN4CCC(c5n[nH]c(-c6ccccn6)n5)CC4)cc3)nc3sccn23)cc1 [Example 10, 5-phenyl-6-(4-{[4-(5-pyridin-2-yl-1,2,4-triazol-3-yl)piperidin-1-yl]methyl}phenyl)imidazo[2,1-b][1,3]thiazole] | < 10 µM |  |
| N#Cc1ccn2c(-c3ccccc3)c(-c3ccc(CN4CCC(c5nnc(-c6cccs6)[nH]5)CC4)cc3)nc2c1 [Example 102, ′3-phenyl-2-[4-({4-[5-(2-thienyl)-4H-1,2,4-triazol-3-yl]piperidin-1-yl}methyl)phenyl]imidazo[1,2-a]pyridine-7-carbonitrile] |  | < 10 µM |
| c1ccc(-c2c(-c3ccc(CN4CCC(c5nnc(-c6ccc[nH]6)[nH]5)CC4)cc3)nc3sccn23)cc1 [Example 109, ′5-phenyl-6-[4-({4-[5-(1H-pyrrol-2-yl)-4H-1,2,4-triazol-3-yl]piperidin-1-yl}methyl)phenyl]imidazo[2,1-b][1,3]thiazole] |  | < 10 µM |
| Clc1ccn2c(-c3ccccc3)c(-c3ccc(CN4CCC(c5nnc(-c6ccc[nH]6)[nH]5)CC4)cc3)nc2c1 [Example 107, ′7-chloro-3-phenyl-2-[4-({4-[5-(1H-pyrrol-2-yl)-4H-1,2,4-triazol-3-yl]piperidin-1-yl}methyl)phenyl]imidazo[1,2-a]pyridine] |  | < 10 µM |
| c1ccc(-c2c(-c3ccc(CN4CCC(c5nnc(-c6ncccn6)[nH]5)CC4)cc3)nc3sccn23)cc1 [Example 81, ′5-phenyl-6-(4-{[4-(5-pyrimidin-2-yl-4H-1,2,4-triazol-3-yl)piperidin-1-yl]methyl}phenyl)imidazo[2,1-b][1,3]thiazole] |  | > 10 µM |
| c1ccc(-c2nc(C3CCN(Cc4ccc(-c5nc6ccccn6c5-c5ccncc5)cc4)CC3)n[nH]2)nc1 [Example 16, 3-pyridin-4-yl-2-(4-{[4-(5-pyridin-2-yl-1,2,4-triazol-3-yl)piperidin-1-yl]methyl}phenyl)imidazo[1,2-a]pyridine] | > 10 µM |  |
| c1ccc(-c2c(-c3ccc(CN4CCC(c5nnc(-c6cccs6)[nH]5)CC4)cc3)nc3sccn23)cc1 [Example 100, ′5-phenyl-6-[4-({4-[5-(2-thienyl)-4H-1,2,4-triazol-3-yl]piperidin-1-yl}methyl)phenyl]imidazo[2,1-b][1,3]thiazole] |  | < 10 µM |
| COc1ccc(-c2c(-c3ccc(CN4CCC(c5n[nH]c(-c6ccccn6)n5)CC4)cc3)nc3ccccn23)cc1 [Example 15, 3-(4-methoxyphenyl)-2-(4-{[4-(5-pyridin-2-yl-1,2,4-triazol-3-yl)piperidin-1-yl]methyl}phenyl)imidazo[1,2-a]pyridine] | < 10 µM |  |
| CSc1nn2c(-c3ccccc3)c(-c3ccc(CN4CCC(c5nnc(-c6ccccn6)[nH]5)CC4)cc3)nc2s1 [Example 47, 2-(methylsulfanyl)-5-phenyl-6-[4-({4-[5-(pyridin-2-yl)-4H-1,2,4-triazol-3-yl]piperidin-1-yl}methyl)phenyl]imidazo[2,1-b][1,3,4]thiadiazole] | > 10 µM |  |
| N#Cc1ccn2c(-c3ccccc3)c(-c3ccc(CN4CCC(c5nnc(-c6ncccn6)[nH]5)CC4)cc3)nc2c1 [Example 78, 3-phenyl-2-[4-({4-[5-(pyrimidin-2-yl)-4H-1,2,4-triazol-3-yl]piperidin-1-yl}methyl)phenyl]imidazo[1,2-a]pyridine-7-carbonitrile] | < 10 µM |  |
| c1ccc(-c2c(-c3ccc(CN4CCC(c5nnc(-c6nccs6)[nH]5)CC4)cc3)nc3ccccn23)cc1 [Example 85, ′3-phenyl-2-[4-({4-[5-(1,3-thiazol-2-yl)-4H-1,2,4-triazol-3-yl]piperidin-1-yl}methyl)phenyl]imidazo[1,2-a]pyridine] |  | > 10 µM |
| N#Cc1ccn2c(-c3ccccc3)c(-c3ccc(CN4CCC(c5nc(-c6ccncc6)n[nH]5)CC4)cc3)nc2c1 [Example 57, ′3-phenyl-2-(4-{[4-(3-pyridin-4-yl-1H-1,2,4-triazol-5-yl)piperidin-1-yl]methyl}phenyl)imidazo[1,2-a]pyridine-7-carbonitrile] |  | < 10 µM |
| c1ccc(-c2c(-c3ccc(CN4CCC(c5cc(-c6ccccn6)n[nH]5)CC4)cc3)nc3ncccn23)cc1 [Example 30, 3-phenyl-2-(4-{[4-(3-pyridin-2-yl-pyrazol-5-yl)piperidin-1-yl]methyl}phenyl)imidazo[1,2-a]pyrimidine] | > 10 µM |  |
| c1ccc(-c2nc(C3CCN(Cc4ccc(-c5nc6ncccn6c5-c5ccncc5)cc4)CC3)n[nH]2)nc1 [Example 36, 3-pyridin-4-yl-2-(4-{[4-(5-pyridin-2-yl-1,2,4-triazol-3-yl)piperidin-1-yl]methyl}phenyl)imidazo[1,2-a]pyrimidine] | > 10 µM |  |
| c1ccc(-c2c(-c3ccc(CN4CCC(c5n[nH]c(-c6ccccn6)n5)CC4)cc3)nc3ccccn23)cc1 [Example 2, 3-phenyl-2-(4-{[4-(5-pyridin-2-yl-1H-1,2,4-triazol-3-yl)piperidin-1-yl]methyl}phenyl)imidazo[1,2-a]pyridine] | < 10 µM |  |
| c1ccc(-c2c(-c3ccc(CN4CCC(c5nnc(-c6ccncc6)[nH]5)CC4)cc3)nc3sccn23)cc1 [Example 56, ′5-phenyl-6-(4-{[4-(5-pyridin-4-yl-4H-1,2,4-triazol-3-yl)piperidin-1-yl]methyl}phenyl)imidazo[2,1-b][1,3]thiazole] |  | < 10 µM |
| Cc1cccc(-c2nnc(C3CCN(Cc4ccc(-c5nc6ncccn6c5-c5ccccc5)cc4)CC3)[nH]2)n1 [Example 63, 2-[4-({4-[5-(6-methylpyridin-2-yl)-4H-1,2,4-triazol-3-yl]piperidin-1-yl}methyl)phenyl]-3-phenylimidazo[1,2-a]pyrimidine] | > 10 µM |  |
| N#Cc1ccn2c(-c3ccccc3)c(-c3ccc(CN4CCC(c5nnc(-c6ccccn6)[nH]5)CC4)cc3)nc2c1 [Example 114, ′3-phenyl-2-(4-{[4-(5-pyridin-2-yl-4H-1,2,4-triazol-3-yl)piperidin-1-yl]methyl}phenyl)imidazo[1,2-a]pyridine-7-carbonitrile] |  | < 10 µM |
| c1ccc(-c2c(-c3ccc(CN4CCC(c5n[nH]c(-c6nccs6)n5)CC4)cc3)nc3ncccn23)cc1 [Example 84, ′3-phenyl-2-[4-({4-[5-(1,3-thiazol-2-yl)-1H-1,2,4-triazol-3-yl]piperidin-1-yl}methyl)phenyl]imidazo[1,2-a]pyrimidine] |  | > 10 µM |
| Cc1ccc2nc(-c3ccc(CN4CCC(c5nnc(-c6ccccc6)[nH]5)CC4)cc3)c(-c3ccccc3)n2n1 [Example 119, 6-methyl-3-phenyl-2-(4-{[4-(5-phenyl-4H-1,2,4-triazol-3-yl)piperidin-1-yl]methyl}phenyl)imidazo[1,2-b]pyridazine] | < 10 µM |  |
